Values quoted from earlier work, collected in patent US9452178B1, “Acne formulations, treatments, and pressure sensitive patches for delivery of acne formulations” (SatisPharma, LLC, priority 2014, dated 2016).

Conditions: complex with polyvinylpyrrolidone; publication by Rhein et al

## O=C(O)c1ccccc1O [salicylic acid]
  permeation through the epidermis: prevents its permeation through the epidermis
